Reference: US4634709A, “Platelet aggregation inhibitory agents and intermediates therefor” (Research Corporation, priority 1984, dated 1987)
Counter-ions that a name gives are not always drawn. Like-named read-outs stand apart in the source and are kept apart here.

How the values were obtained:
[1] = tested on: human blood platelet aggregation, ADP-induced; assay: Inhibition of ADP-induced human blood platelet aggregation (aggregometry, platelet-rich plasma); type: cell-based; details: for inhibition at 50 µM: 50 μM evaluant, % reduction in maximal aggregation intensity vs control; for inhibition at 100 µM: read-out: % inhibition of aggregation, ADP-induced; for inhibition at 500 µM: 500 μM evaluant
Protocol: (§1) Adenosine diphosphate (ADP) used to induce platelet aggregation was employed as the sodium salt. A 10 mM stock solution was prepared fresh before each use in modified Tyrode's buffer and working dilutions were prepared with modified Tyrode's buffer immediately prior to use. The buffer contained NaCl (137.00 mM), KCl (2.70 mM), NaHCO3 (11.90 mM), NaH2 PO4.H2 O (0.36 mM) and glucose (5.60 mM) in redistilled water. Adjustment to pH 7.4 was effected by addition of 1N HCl. A solution of highly purified human α-thrombin (10,624 units/ml) wss stored at -70° C. in 10 μl aliquots. The latter were diluted with modified Tyrode's buffer to a concentration of 10.0 units/ml immediately prior to use.
(§2) Venous blood for the examples set forth below was collected in plastic syringes from healthy male volunteers (aged 21-30 years) who had fasted overnight and had abstained from all medications, alcohol, tobacco and caffeine for a period of at least one week prior to donations. In experiments employing ADP as the aggregation-inducing agent, the blood was transferred into siliconized centrifuge tubes containing 3.2% sodium citrate (blood/citrate ratio 8:1); in thrombin-induced aggregations, 3.8% sodium citrate (blood/citrate ratio 9:1) was used. The cirtrated whole blood was centrifuged at 120×g for 15 minutes at 23° C., yielding platelet-rich plasma (PRP); platelet-poor plasma (PPP) was obtained by centrifugation of citrated whole blood at 1,100×g for […] at 23° C. The platelet count of PRP was determined and adjusted to a final count of 300,000 platelets per mm^3 by dilution with autologous PPP. (Occasionally, blood from a given donor yielded PRP with a count lower than the stipulated figure; however, this was usually greater than 285,000, and never less than 250,000 platelets per mm^3.) The plasma so obtained was transferred in 1.2-ml aliquots to siliconized glass tubes, by means of a siliconized Pasteur pipet. In order to maintain plasma pH in the appropriate range, the air in the tubes was displaced gently (1 minute) with a 5% CO2 -95% air (v/v) mixture and the tubes sealed with Parafilm according to the method of Han et al, Br. J. Haematol. Vol. 26, pages 373-389 (1974). The plasma was maintained at 37° C. in a water bath until used in the aggregation experiments.
Assays of platelet aggregation was performed at least in duplicate, using plasma acquired from different donors, employing a method developed by Quintana et al (Quintana et al, Thromb. Res., Vol. 22, pages 665-680 (1981); Quintana et al, Thromb. Res., Vol. 20, pages 405-415 (1980) (cf. Born, Nature, Vol. 194, pages 927-929 (1962) and Mustard et al, J. Lab. Clin. Med., Vol. 64, pages 548-559 (1964)).
Initially, in each experiment, 0.45-ml aliquots of PRP were placed in siliconized cuvettes and stirred (1,100 rpm) in the aggregometer at 37° C. to ascertain the absence of spontaneous aggregation. Appropriate ADP solutions (50 μl) were subsequently injected using a Hamilton microliter syringe to determine the minimal concentration eliciting maximal biphasic aggregation. This ranged from 2 μM to 8 μM (cf. Quintana et al, Thromb. Res., Vol. 22, pages 665-680 (1981); Quintana et al, Thromb. Res., Vol. 20, pages 405-415 (1980)). In each case, the concentration of ADP so determined was used in eliciting aggregation throughout each specific set of aggregometric evaluations. In all thrombin-induced aggregation experiments the same stimulus was applied; this constituted injection of 50 μl of the solution containing 10.0 units of α-thrombin/ml (affording a final concentration of 1.0 unit of α-thrombin/ml PRP).
0.5 μl of a solution of the evaluant compound in redistilled 95% ethanol was injected into a stirred (1,100 rpm) 0.45-ml aliquot of plasma in a siliconized cuvette in the aggregometer-well (37° C.). After 15 seconds, the cuvette was transferred to an incubator (also at 37° C.) and the contents held at this temperature, without stirring, until 2 minutes post-injection. […]

[2] = tested on: platelet aggregation, ADP-induced; details: cited from earlier work
[3] = tested on: human blood platelet aggregation, thrombin-induced; assay: Inhibition of thrombin-induced human blood platelet aggregation (aggregometry, platelet-rich plasma); type: cell-based; details: for % inhibition of aggregation, thrombin-induced: 50 μM evaluant, human PRP, 1.0 unit α-thrombin/ml PRP
Protocol: as §1
as §2, with “experiments. […]” for “experiments.”
Initially, in each experiment, 0.45-ml aliquots of PRP were placed in siliconized cuvettes and stirred (1,100 rpm) in the aggregometer at 37° C. to ascertain the absence of spontaneous aggregation. […] In each case, the concentration of ADP so determined was used in eliciting aggregation throughout each specific set of aggregometric evaluations. […]

[4] = literature; cited from earlier work
patient's platelets = details: Walder et al; cited from earlier work
[5] = Platelet, 100 μM evaluant, human PRP

c1ccc2c(c1)CCN(Cc1ccc(CN3CCc4ccccc4C3)cc1)C2 [Example 2, α,α'-Bis(1,2,3,4-tetrahydroisoquinolino)-p-xylene Dihydrobromide]
inhibition at 50 µM ([1]; Platelet, human PRP): 0% | ADP-induced platelet aggregation inhibition, in words ([1]; Table 1 footnote 5): inactive

O=C1C(CC[S+]([O-])c2ccccc2)C(=O)N(c2ccccc2)N1c1ccccc1 (stereo not shown) [sulfinpyrazone]
inhibition in ADP-induced aggregation ([2]; 2,470 μM, Packham et al): 0%

CCCCCCCCCCN1CCCC(C(=O)N(C)CCN(C)C(=O)C2CCCN(CCCCCCCCCC)C2)C1 (stereo not shown) [Example 40, 1,2-Bis[N--(1-decylnipecotoyl)-N--methylamino]ethane Dihydriodide]
inhibition at 50 µM ([1]; Platelet, human PRP): 82.6%

CCCCN(CCCC)C(=O)C1CCCN(Cc2ccc(CN3CCCC(C(=O)N(CCCC)CCCC)C3)cc2)C1 (stereo not drawn) [Example 14, α,α'-Bis[3-(N,N--dibutylcarbamoyl)piperidino]-p-xylene Dihydrobromide]
inhibition at 50 µM ([1]; Platelet, human PRP): 49.7%

CCCCCCCCCCN1CCCc2cc(O)ccc21 [Example 9, 1-Decyl-6-hydroxy-1,2,3,4-tetrahydroquinoline Hydriodide]
inhibition at 50 µM ([1]; Platelet, human PRP): 33%

CCCCN(CCCC)C(=O)C1CCCN(C)C1 (stereo not shown) [Example 23, 1-Methyl-3-(N,N--dibutylcarbamoyl)piperidine Hydriodide]
inhibition at 100 µM [1, 5]: 11.8%

CCCCCCCCCCNC(=O)C1CCCN(C)C1 (stereo not shown) [Example 25, 1-Methyl-3-(N--decylcarbamoyl)piperidine Hydriodide]
inhibition at 100 µM [1, 5]: 45.6%

C[N+]1(CCCCCCCCCC[N+]2(C)CCCCC2)CCCCC1 [Example 33, 1,10-Bis(N--methylpiperidinium)decane Diiodide]
inhibition at 100 µM ([1]; Homo sapiens, Platelet): 0%

OCCN(CCO)c1nc(N2CCCCC2)c2nc(N(CCO)CCO)nc(N3CCCCC3)c2n1 [dipyridamole]
inhibition in ADP-induced aggregation ([2]; 250 μM, Cucuiani et al): 10%

CCCCCCCCCCN1CCCC(C(=O)N2CCN(C(=O)C3CCCN(CCCCCCCCCC)C3)CC2)C1 (stereo not shown) [Example 37, N,N'--Bis(1-decylnipecotoyl)piperazine Dihydriodide]
% inhibition of aggregation, thrombin-induced [3]: 88.2% | inhibition at 10 µM ([1]; Platelet, 10 μM evaluant, human PRP): 48.3% | inhibition at 50 µM ([1]; Platelet, human PRP): 93.8%

CCCCCCCCN(C)C(=O)C1CCCNC1 (stereo not shown) [Example 21, N--Methyl-N--octylnipecotamide]
inhibition at 100 µM [1, 5]: 49.9%

CCCCCCCCN(C)C(=O)c1cccnc1 [Example 20, N--Methyl-N--octylnicotinamide]
inhibition at 100 µM [1, 5]: 12.1%

CCCCCCCCCCNC(=O)C1CCCN(Cc2ccc(CN3CCCC(C(=O)NCCCCCCCCCC)C3)cc2)C1 (stereo not drawn) [Example 19, α,α'-Bis[3-(N--decylcarbamoyl)piperidino]-p-xylene Dihydrobromide]
inhibition at 50 µM ([1]; Platelet, human PRP): 0%

CCCCCCCCCCN(CCCCCCCCCC)C(=O)C1CCCN(Cc2ccc(CN3CCCC(C(=O)N(CCCCCCCCCC)CCCCCCCCCC)C3)cc2)C1 (stereo not drawn) [Example 16, α,α'-Bis[3-(N,N--didecylcarbamoyl)piperidino]-p-xylene Dihydrobromide]
inhibition at 50 µM ([1]; Platelet, human PRP): 0%

CCCCCCN1CCCC(C(=O)N(CCCC)CCCCCCN(CCCC)C(=O)C2CCCN(CCCCCC)C2)C1 (stereo not shown) [Example 44, 1,6-Bis[N--(1-hexylnipecotoyl)-N--butylamino]hexane Dihydriodide]
inhibition at 50 µM ([1]; Platelet, human PRP): 72.4%

Oc1ccc2c(c1)CCCN2Cc1ccc(CN2CCCc3cc(O)ccc32)cc1 [Example 5, α,α'-Bis(6-hydroxy-1,2,3,4-tetrahydroquinolino)-p-xylene Dihydrobromide]
inhibition at 50 µM ([1]; Platelet, human PRP): 21.5%

CCCCCCCCCCN1CCCC(C(=O)N(C)CCCCCCN(C)C(=O)C2CCCN(CCCCCCCCCC)C2)C1 (stereo not shown) [Example 42, 1,6-Bis[N--(1-decylnipecotoyl)-N--methylamino]hexane Dihydriodide]
% inhibition of aggregation, thrombin-induced [3]: 88.3% | inhibition at 50 µM ([1]; Platelet, human PRP): 85.6%

CCCCCCCCCCCCCCN1CCCc2cc(O)ccc21 [Example 12, 1-Tetradecyl-6-hydroxy-1,2,3,4-tetrahydroquinoline Hydriodide]
inhibition at 50 µM ([1]; Platelet, human PRP): 0%

CN1CCCC(C(=O)NCCCCCCCCCCNC(=O)C2CCCN(C)C2)C1 (stereo not shown) [Example 28, 1,10-Bis[N--(1-methylnipecotoyl)amino]decane Dihydriodide]
inhibition at 50 µM ([1]; Platelet, human PRP): 30.9%

Oc1ccc2c(c1)CCCN2CCCCCCCCCCN1CCCc2cc(O)ccc21 [Example 7, 1,10-Bis(6-hydroxy-1,2,3,4-tetrahydroquinolino)decane Dihydriodide]
inhibition at 50 µM ([1]; Platelet, human PRP): 25.9%

CCCCCCN1CCCC(C(=O)N(C)CCN(C)C(=O)C2CCCN(CCCCCC)C2)C1 (stereo not shown) [Example 41, 1,2-Bis[N--(1-hexylnipecotoyl)-N--methylamino]ethane Dihydriodide]
inhibition at 50 µM ([1]; Platelet, human PRP): 71.6%

O=C(O)C1CCCNC1 (stereo not shown) [nipecotic acid, Piperidine-3-carboxylic acid]
deleterious / adverse effects [4]: has not been discerned to have deleterious effects

CN(CCN(C)C(=O)C1CCCNC1)C(=O)C1CCCNC1 (stereo not shown) [Example 39, 1,2-Bis(N-nipecotoyl-N-methylamino)ethane dihydrobromide]
inhibition at 500 µM ([1]; Platelet, human PRP): 46.3%

CN(C)CCCN1c2ccccc2Sc2ccc(Cl)cc21 [chloropromazine, reference compound]
effectiveness in thrombin-induced aggregation compared with the piperidine derivatives ([3]; in words, FIG. 2): much less effective | effectiveness in ADP-induced aggregation compared with the piperidine derivatives ([1]; in words): considerably less effective

CCCCCCCCCCN1CCCC(C(=O)N(CCCC)CCCCCCN(CCCC)C(=O)C2CCCN(CCCCCCCCCC)C2)C1 (stereo not shown) [Example 43, 1,6-Bis[N--(1-decylnipecotoyl)-N--butylamino]hexane Dihydriodide]
inhibition at 50 µM ([1]; Platelet, human PRP): 38.6%

CN1CCCC(C(=O)NCCCCCCNC(=O)C2CCCN(C)C2)C1 (stereo not shown) [Example 31, 1,6-Bis[N--(1-methylnipecotoyl)amino]hexane Dihydriodide]
inhibition at 500 µM ([1]; Platelet, human PRP): 17%

CC(=O)Oc1ccccc1C(=O)O [aspirin, reference compound]
deleterious / adverse effects [4]: severe enough to counsel against its use by survivors of myocardial infarction | % inhibition of aggregation, thrombin-induced [3]: 9% | effect on patient's platelets (patient's platelets): incapacitate the patient's platelets for the rest of their life span | inhibition at 50 µM ([1]; Platelet, human PRP): 24%

O=C(C1CCCNC1)N1CCN(C(=O)C2CCCNC2)CC1 (stereo not shown) [Example 35, N,N'--Bis(nipecotoyl)piperazine Dihydrobromide]
inhibition at 500 µM ([1]; Platelet, human PRP): 48.9%

CCCCCCCCN(C)C(=O)C1CCCN(C)C1 (stereo not shown) [Example 22, 1-Methyl-3-(N--methyl-N--octylcarbamoyl)piperidine Hydriodide]
inhibition at 100 µM [1, 5]: 33.1%

CCCCN(CCCC)C(=O)c1cccnc1 [Example 13, N,N--Dibutylnicotinamide]
inhibition at 100 µM [1, 5]: 0%

CCCCCCN1CCCc2cc(O)ccc21 [Example 11, 1-Hexyl-6-hydroxy-1,2,3,4-tetrahydroquinoline Hydriodide]
inhibition at 50 µM ([1]; Platelet, human PRP): 37.2% | inhibition at 100 µM [1, 5]: 45.9%
